The values below come from ChEMBL document CHEMBL1201862, “PubChem BioAssay data set” (2004).

Some test systems named below: NCI-H522; K562; Hs-578T; MDA-MB-435; MOLT-4; A498; OVCAR-4; SF-295; RXF 393; SK-MEL-2; BT-549; TK-10; IGROV-1; CAKI-1; KM12; SN12C; MDA-N; 786-0; OVCAR-3.
Holding throughout (experiment): NCI-60 cell line screen, 48 h

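Method: 48-hour compound exposure of cells in 96-well plates, five concentrations, linear interpolation of endpoints. GI50: concentration for 50% inhibition of growth.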 The source made the active and inactive calls. No stated cut-off is given here; in the data, active = GI50 up to about 1.1 µM and inactive = higher. Bounds are passed on as bounds.

`Cc1cc(NCc2ccccc2)c2ccccc2[n+]1CCCCCCCCCC[n+]1c(C)cc(NCc2ccccc2)c2ccccc21.[O-][Cl+3]([O-])([O-])[O-].[O-][Cl+3]([O-])([O-])[O-]`: the GI50 with NCI-H522 is 19.5 µM (inactive); in the test on K562 it was 0.271 µM (active); in the test with Hs-578T, 0.65 µM (active); with MDA-MB-435, 0.39 µM (active); with MOLT-4 it was 0.423 µM (active); in the test with A498, 0.883 µM (active). The GI50 is 1.3 µM (inactive) with OVCAR-4; 0.391 µM (active) in the test with SF-295; 1.96 µM (inactive) in the test on RXF 393; 0.458 µM (active) with SK-MEL-2; 0.569 µM (active) in the test on BT-549; 1.21 µM (inactive) in the test with TK-10. Besides, the GI50 is 2.98 µM (inactive) with IGROV-1; 1.44 µM (inactive) in the test with CAKI-1; 0.191 µM (active) with KM12; 0.279 µM (active) in the test with SN12C; 0.374 µM (active) in the test on MDA-N; 0.653 µM (active) in the test on 786-0.

For `Cc1ccc(S(=O)(=O)N/N=C2/CCC(C(C)(C)C)CC2Br)cc1` (stereo unspecified), the GI50 in the test on NCI-H522 is 18.2 µM (inactive); in the test on K562 it was 19.8 µM (inactive); in the test on Hs-578T, 17.2 µM (inactive); in the test with MDA-MB-435, 18.7 µM (inactive); in the test on MOLT-4, 20 µM (inactive); in the test on A498, 48.6 µM (inactive). The GI50 in the test with OVCAR-4 was 19.5 µM (inactive); in the test on SF-295, 34.5 µM (inactive); in the test with SK-MEL-2, 13.7 µM (inactive); with BT-549, 32.1 µM (inactive); in the test with TK-10 it was 31 µM (inactive); with IGROV-1, 38.6 µM (inactive). Besides, the GI50 in the test on OVCAR-3 is 16.2 µM (inactive); with CAKI-1 it was 28.1 µM (inactive); in the test on KM12 it was 20.8 µM (inactive); in the test with SN12C, 17.3 µM (inactive); in the test on MDA-N, 28.2 µM (inactive); in the test with 786-0, 31.2 µM (inactive).

Regarding `C=CCc1cccc2cc(C(N)=O)c(=N)oc12`, the GI50 in the test on Hs-578T was > 10 µM (inactive); with MDA-MB-435, 95.7 µM (inactive); with MOLT-4, > 100 µM (inactive); in the test with A498 it was 77.3 µM (inactive); with OVCAR-4 it was > 100 µM (inactive); in the test with RXF 393 it was > 100 µM (inactive). The GI50 was 99.5 µM (inactive) in the test on SK-MEL-2; > 100 µM (inactive) in the test on BT-549; 23.8 µM (inactive) in the test with IGROV-1; > 100 µM (inactive) in the test with OVCAR-3; > 100 µM (inactive) in the test on CAKI-1; > 100 µM (inactive) with KM12. The GI50 in the test on SN12C is > 100 µM (inactive); in the test with MDA-N, > 100 µM (inactive); in the test on 786-0 it was 73.8 µM (inactive).

As for `CC(C(=O)N1c2ccccc2Sc2ccccc21)N1c2ccccc2Sc2ccccc21` (stereo unspecified), the GI50 in the test with K562 was 84.1 µM (inactive); with Hs-578T it was > 100 µM (inactive); in the test with MDA-MB-435, > 100 µM (inactive); with MOLT-4, 42.9 µM (inactive); in the test with A498, 31.8 µM (inactive); in the test with OVCAR-4, > 100 µM (inactive). For the same compound, the GI50 in the test on SF-295 was 98.4 µM (inactive); with RXF 393 it was > 100 µM (inactive); in the test with SK-MEL-2, > 100 µM (inactive); with BT-549 it was > 100 µM (inactive); in the test with TK-10, > 100 µM (inactive); with IGROV-1, 79.8 µM (inactive). Besides, the GI50 in the test with OVCAR-3 is 55 µM (inactive); in the test on KM12, 72.1 µM (inactive); in the test on SN12C, > 100 µM (inactive); with MDA-N it was > 100 µM (inactive); in the test with 786-0, 88.1 µM (inactive).

Take `CCCCCC(C)(C)CCC(=O)OC1OC(COC2OC(COC3OC(CO)C(O)C(O)C3O)C(O)C(O)C2O)C(O)C(O)C1O` (stereo unspecified): the GI50 with NCI-H522, in the test with K562, with Hs-578T, with MDA-MB-435, in the test on MOLT-4 and in the test on A498 was > 100 µM (inactive) in each case. Besides, the GI50 in the test with SF-295 was > 100 µM (inactive); in the test on RXF 393 it was 6.17 µM (inactive); with SK-MEL-2 it was > 100 µM (inactive); in the test on BT-549 it was > 100 µM (inactive); in the test with TK-10, > 100 µM (inactive); with IGROV-1 it was > 100 µM (inactive). Also, the GI50 with OVCAR-3, with KM12, in the test with SN12C, with MDA-N and in the test with 786-0 was > 100 µM (inactive) throughout.

On to `CC1C2C=CC1C(c1c3ccc(=O)c(O)c-3oc3c(O)c(O)ccc13)C2C(=O)O` (stereo unspecified), for which the GI50 with K562 is 21.4 µM (inactive); in the test with Hs-578T it was 89.5 µM (inactive); in the test with MDA-MB-435, 19.6 µM (inactive); in the test on MOLT-4, 21.6 µM (inactive); in the test on A498, > 100 µM (inactive); with OVCAR-4, 78.9 µM (inactive). In addition, the GI50 in the test on SF-295 was 43.2 µM (inactive); in the test on RXF 393, > 100 µM (inactive); with SK-MEL-2, > 100 µM (inactive); with BT-549, > 100 µM (inactive); in the test with TK-10, > 100 µM (inactive); in the test with IGROV-1, > 100 µM (inactive). Besides, the GI50 with OVCAR-3 was > 100 µM (inactive); with CAKI-1, > 100 µM (inactive); with KM12, 50.2 µM (inactive); in the test on SN12C, 24 µM (inactive); with MDA-N, 21.4 µM (inactive); in the test on 786-0, 61 µM (inactive).

With `COC(=O)c1ccc(Cc2cc(Cc3ccc(C(=O)OC)cc3)cc(Cc3ccc(C(=O)OC)cc3)c2)cc1`, the GI50 in the test with NCI-H522, with K562, in the test with Hs-578T, with MDA-MB-435, in the test with MOLT-4 and in the test with A498 was > 25 µM (inactive) each time. The GI50 with OVCAR-4 was 16.5 µM (inactive); in the test with SF-295 it was > 25 µM (inactive); with SK-MEL-2, > 25 µM (inactive); in the test on BT-549, > 25 µM (inactive); with TK-10, > 25 µM (inactive); in the test on IGROV-1, > 25 µM (inactive). The GI50 in the test with OVCAR-3, with KM12, in the test on SN12C, in the test on MDA-N and in the test with 786-0 was > 25 µM (inactive) each time.

As to `Cc1ccccc1NC(=O)C(=O)CC(=O)c1sc(Nc2ccccc2[N+](=O)[O-])nc1C`, the GI50 was 27.7 µM (inactive) in the test with NCI-H522; 49.2 µM (inactive) in the test with K562; 40.8 µM (inactive) in the test with Hs-578T; 29 µM (inactive) with MDA-MB-435; 51.1 µM (inactive) in the test on MOLT-4; 18.2 µM (inactive) with OVCAR-4. The GI50 was 22.5 µM (inactive) in the test on SF-295; 26.4 µM (inactive) with RXF 393; 56.6 µM (inactive) in the test with SK-MEL-2; 30.7 µM (inactive) in the test with BT-549; 25.7 µM (inactive) with TK-10; 41.4 µM (inactive) in the test with IGROV-1. Also, the GI50 is 32 µM (inactive) in the test on OVCAR-3; 28.4 µM (inactive) in the test with CAKI-1; 47.5 µM (inactive) in the test on KM12; 50.6 µM (inactive) with SN12C; 35.7 µM (inactive) in the test with MDA-N; 21.5 µM (inactive) in the test with 786-0.

As to `Cc1cccc(Nc2nn3c(=O)c4c5c(sc4nc3s2)CCCC5)c1`, the GI50 was 4.35 µM (inactive) in the test on NCI-H522; 5.09 µM (inactive) with K562; 6.04 µM (inactive) with Hs-578T; 7.41 µM (inactive) in the test on MDA-MB-435; 48.4 µM (inactive) with MOLT-4; 16 µM (inactive) in the test on OVCAR-4. For the same compound, the GI50 is 3.08 µM (inactive) in the test with SF-295; 20.4 µM (inactive) in the test on RXF 393; > 100 µM (inactive) with SK-MEL-2; 25.8 µM (inactive) in the test on BT-549; 37.7 µM (inactive) in the test on TK-10; 43.4 µM (inactive) in the test with IGROV-1. Besides, the GI50 in the test on OVCAR-3 was 25.9 µM (inactive); in the test on CAKI-1 it was 9.93 µM (inactive); in the test with KM12, 16.1 µM (inactive); with SN12C it was 66.7 µM (inactive); in the test with MDA-N, 15 µM (inactive); in the test on 786-0, 45.9 µM (inactive).

For `COc1ccc(/C=C2\CCC(C)/C(=C\c3ccc(OC)c(OC)c3)C2=O)cc1OC` (stereo unspecified), the GI50 is 3.36 µM (inactive) with K562; 12.6 µM (inactive) in the test with Hs-578T; 3.76 µM (inactive) in the test with MDA-MB-435; 3.23 µM (inactive) in the test with MOLT-4; 9.08 µM (inactive) with A498; 5.36 µM (inactive) with SF-295. Besides, the GI50 in the test with RXF 393 was 5.06 µM (inactive); in the test with SK-MEL-2, 3.82 µM (inactive); in the test with BT-549, 4.6 µM (inactive); in the test with TK-10, 2.61 µM (inactive); with IGROV-1, 2.88 µM (inactive); in the test with OVCAR-3, 13.6 µM (inactive). Also, the GI50 with CAKI-1 was 5.82 µM (inactive); with KM12 it was 2.55 µM (inactive); in the test with SN12C it was 7.29 µM (inactive); with MDA-N, 5.87 µM (inactive); in the test on 786-0, 5.11 µM (inactive).

On to `CC(=O)OCCOCn1c2c(c(=O)[nH]c1=O)CCC2`, for which the GI50 in the test with NCI-H522, in the test with K562, in the test with Hs-578T, in the test with MDA-MB-435, in the test on MOLT-4 and in the test on OVCAR-4 was > 100 µM (inactive) in each case. Besides, the GI50 in the test on SF-295, in the test on RXF 393, in the test on SK-MEL-2, in the test with BT-549, with TK-10 and with IGROV-1 was > 100 µM (inactive) in each case. The GI50 in the test on OVCAR-3, in the test on CAKI-1, in the test with KM12, in the test with SN12C, in the test with MDA-N and in the test on 786-0 was > 100 µM (inactive) each time.
